# Columns and labels:
# [1] = test system: cutaneous MCT or subcutaneous MCT; assay: Example 1: RECIST v.1.1 tumor response after a single intratumoral Compound 1 injection (0.4 mL/cm^3 of tumor) with prophylactic and supportive medications; assay type: in vivo, Canis lupus familiaris (dog)
# Source text: Study dogs were managed similarly and with due regard for their welfare. Animals were enrolled in the study in accordance with instructions provided in Australian Pesticides and Veterinary Medicines Authority (APVMA) small-scale trials permit PER7250 (unregistered drug use). All animals were client-owned, treated by Australian registered veterinarians, and cases managed under their direct supervision. An enrolled dog could be removed from the study prior to study completion under the following circumstances: • 1. If at any time during the study, in the opinion of the attending veterinarian, the dog's welfare is at risk due to non-response of the tumor to Compound 1 treatment or due to a serious adverse event, the veterinarian could elect to withdraw the dog from the study. Following withdrawal, the dog's attending veterinarian could then administer supportive treatment and veterinary care that they deem is appropriate and in the best interest of the animal. • 2. The owner elected to voluntarily withdraw the dog from the study.
# Dogs were selected for the study if they met the criteria in Table 1 below.
# Compound 1 was prepared for intratumoral injection by preparation of a composition comprising 1 mg/mL Compound 1 in a 40% propylene glycol solution with 30 mM acetate buffer, pH 4.2. The dosage level was 0.4 mL/cm^3 of tumor.
# The drug was administered to each dog as 0.4 mL per cm^3 of tumor volume (40% v/v tumor) as determined on the day of dosing (Day 0). Tumor volume was determined using the modified ellipsoidal calculation=½×length×width×depth (cm) (Monga et al, 2000; Celikoglu et al, 2008).
# Wherever possible, the tumor and a 2 cm border surrounding the tumor was shaved prior to treatment. To deliver the drug, the needle of the dosing syringe was inserted into the tumor at the injection point and moved in a radial manner in 2- and 3-dimensions. Treatment administration was recorded on the individual “Case Report Form”. Study dogs were clinically examined at 2-4 and 24 hours, and 7 (±2), 14 (±2) and 28 (±2) days post-treatment (and unscheduled visits at attending veterinarian discretion).
# Each supervising veterinarian was given latitude to provide and record prophylactic and supportive medications as deemed appropriate for managing potential paraneoplastic events and tumor site necrosis following treatment with Compound 1. […]
# Determination of efficacy was based on objective tumor measurements made according to the Response Evaluation Criteria in Solid Tumors (RECIST) v.1.1 guideline (Eisenhauer et al, 2009) using the longest unidirectional tumor measurement (diameter). […] Measurements were recorded using digital calipers at pre-treatment and at 7(±2), 14(±2) and 28(±2) days post treatment. […]
# [2] = Example 1: safety evaluation (clinical parameters, adverse events graded by VCOG-CTCAE); assay type: in vivo, Canis lupus familiaris (dog)
# Description: Clinical parameters such as bodyweight (kg), rectal temperature (° C.), heart rate (HR) per minute, respiratory rate (RR) per minute, general demeanor and body function (e.g. eating, drinking, urine and stools), were collected on each enrolled dog at screening, immediately pre-treatment, at approximately 2-4 and 24 hours post-treatment, and at 7(±2), 14(±2) and 28(±2) days post treatment. An adverse event (AE) was defined as any unfavorable and unintended sign, symptom, or disease temporally associated with the use of the drug, whether or not related to the product (VCOG-CTCAE, 2011). AE were graded according to the VCOG-CTCAE classification which is a descriptive severity scale (grade system) used for AE reporting in dogs treated with antineoplastic therapy.
# With the exception of swelling and pain, local tissue pathology as a result of treatment (i.e. tumor necrosis) was not considered an adverse event (AE). AEs such as rapid breathing, mild tachycardia and post treatment lethargy are generally considered to be the result of the powerful local inflammatory response and systemic activation of the dog's immune response during the treatment response phase. In this study, 44 AEs were identified in 15 event types. The majority of identified AEs (28 out of 44; […]) were represented by the ‘mild’ VCOG-CTCAE classification Grade 1 with no intervention required. With the exception of dog C03-T-07, a level of minimal medical intervention was required in only 3 cases. […] With the exception of dog C03-T-07, all reported AEs were transient in nature—resolved by 24-48 h post treatment in the majority of cases.
# [3] = Example 2: serum biochemistry and haematology; assay type: in vivo, dogs
# Source text: Individual blood samples were collected from the dogs into gel separated plain vacuettes at intervals outlined in Table 12. Plain blood samples were submitted on ice bricks by express courier to the local IDEXX laboratory which performed detailed biochemical analysis. Analysis included creatinine, protein, albumin, globulin, alkaline phosphatase, AST, gamma GT, creatine kinase, cholesterol, magnesium, calcium, phosphate, sodium, potassium, chloride, ALT, glucose, urea, amylase, bilirubin and triglycerides.
# Individual blood samples were collected from the dogs into anti-coagulated (EDTA and sodium citrate) vacutainers at intervals outlined in Table 12. Blood samples were then be submitted on ice bricks by express courier to the local IDEXX laboratory, which performed detailed haematological analysis. Analysis included red blood cell count, white cell count, packed cell volume, mean corpuscular volume, mean corpuscular haemoglobin, mean corpuscular haemoglobin concentration, white cell differential count, platelets, haemoglobin, reticulocytes, PT and APTT.
structure (smiles),measurement,setting,value
"C/C=C(\C)C(=O)O[C@@H]1[C@@H](C)[C@@]2(O)[C@H]([C@@H]3C(C)(C)[C@]13OC(=O)[C@@H](C)CC)[C@@H]1O[C@]1(CO)[C@@H](O)[C@]1(O)C(=O)C(C)=C[C@H]12 [Compound 1, 12-tigloyl-13-(2-methylbutanoyl)-6,7-epoxy-4,5,9,12,13,20-hexahydroxy-1-tigliaen-3-one]",Number of dogs with partial response (PR),"[1]; Day 28, 11 dogs available of 12 treated",3
same,Number of dogs with complete response (CR),"[1]; Day 28, 11 dogs available of 12 treated, 1.0 mg/mL, 0.4 mL/cm^3",6
same,Tumor cytology in the autopsied injection site,"[1]; dog C03-T-07, Day 4, personal correspondence with attending veterinarian",no tumor cytology was identified
same,RECIST classification,"[1]; one value per dog, Day 28, single intratumoral dose, 1.0 mg/mL, 0.4 mL/cm^3 tumor","PR (partial response (PR, at least 30% decrease in the longest diameter of target lesion))"
same,Number of AEs identified,"[2]; 12 dogs, 15 event types",44
same,Share of AEs of VCOG-CTCAE Grade 1,[2]; 28 out of 44,61.3%
same,Dogs that died during the course of the study,"[2]; dog C03-T-07, Day 4, veterinarian did not believe Compound 1 directly contributed",1
same,Time by which reported AEs resolved post treatment,"[2]; majority of cases, except dog C03-T-07",24 to 48 h
same,Number of AEs of ‘mild’ VCOG-CTCAE Grade 1 (no intervention required),[2]; out of 44 AEs,28
same,Cases requiring minimal medical intervention,[2]; with the exception of dog C03-T-07,3
same,Anaemia during the course of the study,[3]; all cohorts,No dog exhibited anaemia
same,Bleeding disorder during the course of the study,[3]; all cohorts,No dog exhibited a bleeding disorder
same,Haematology observations,[3]; all cohorts,fairly unremarkable
same,Number of dogs with slightly elevated reticulocyte counts post treatment,[3]; all cohorts (27 dogs),7
same,Serum biochemistry observations,"[3]; all cohorts, exceptions dogs GCV-204 (AST, CK) and NVC-307 (transient AST, ALT)",fairly unremarkable
same,Number of dogs with slightly lower platelet counts post treatment,[3]; platelets described as ‘clumping’,5

# Reference: patent US20190160035A1, “METHOD OF TREATMENT” (QBIOTICS LIMITED, priority 2016, published 2019)
